How the values were obtained:
Type in all cases: functional
Rattus norvegicus [1] = experiment: Anti-inflammatory activity in carrageenan-induced rat foot paw edema model assessed as reduction in paw volume at 20 mg/kg dosed 30 mins before carrageenan injection and measured 1 hr after carrageenan challenge
Rattus norvegicus [2] = experiment: Anti-inflammatory activity in carrageenan-induced rat foot paw edema model assessed as reduction in paw volume at 20 mg/kg dosed 30 mins before carrageenan injection and measured 5 hrs after carrageenan challenge
Rattus norvegicus [3] = experiment: Anti-inflammatory activity in carrageenan-induced rat foot paw edema model assessed as reduction in paw volume at 20 mg/kg dosed 30 mins before carrageenan injection and measured 3 hrs after carrageenan challenge

Structure (SMILES)	inhibition in vivo at 20 mg/kg (Rattus norvegicus [1])	inhibition in vivo at 20 mg/kg (Rattus norvegicus [2])	inhibition in vivo at 20 mg/kg (Rattus norvegicus [3])
CNCc1ccc(-c2cc(C(F)(F)F)nn2-c2ccc(S(C)(=O)=O)cc2)cc1	72%	67%	89%
CCNCc1ccc(-c2cc(C(F)(F)F)nn2-c2ccc(S(C)(=O)=O)cc2)cc1	66%	66%	72%
CS(=O)(=O)c1ccc(-n2nc(C(F)(F)F)cc2-c2ccc(CN3CCNCC3)cc2)cc1	67%	66%	73%
CNCc1ccc(-c2cc(C(F)(F)F)nn2-c2ccc(S(N)(=O)=O)cc2)cc1	54%	57%	69%
CCNCc1ccc(-c2cc(C(F)(F)F)nn2-c2ccc(S(N)(=O)=O)cc2)cc1	53%	39%	71%
NS(=O)(=O)c1ccc(-n2nc(C(F)(F)F)cc2-c2ccc(CN3CCNCC3)cc2)cc1	58%	35%	70%
CCN(Cc1ccc(-c2cc(C(F)(F)F)nn2-c2ccc(S(C)(=O)=O)cc2)cc1)N=O	24%	25%	39%
CS(=O)(=O)c1ccc(-n2nc(C(F)(F)F)cc2-c2ccc(CN3CCN(N=O)CC3)cc2)cc1	19%	29%	43%
Cc1ccc(-c2cc(C(F)(F)F)nn2-c2ccc(S(N)(=O)=O)cc2)cc1 [CELECOXIB]	40%	48%	80%
